Values after ≈ are worked out from the molar mass of the structure shown. Where two headings read alike, the source gives them in different places.
How the values were obtained:
[1] = 8 mg dose, acidic conditions such as found in the stomach
[2] = 0.1 N HCl at room temperature (Bertelsen et al U.S. Pat. No. 6,713,089); cited from earlier work
[3] = cited from earlier work
[4] = cited from earlier work; remark: listed apart in the source
[5] = cited from earlier work; remark: listed apart in the source

volume of acid required for complete dissolution [1]	solubility (physchem; pH 1.2, simulated gastric fluid) [µg/mL]	solubility (physchem; water) [µg/mL]	SMILES	solubility [2]	pKa ([3]; basic pyrimido group)	pKa [3]	pKa ([3]; enolic group)	apparent partition coefficient ([3]; n-octanol/buffer pH 7.4)	synovial fluid: plasma AUC ratios ([4]; after administration of 4 mg twice daily)	Tmax, range ([4]; fasted subjects) [min]	time to reach peak plasma concentrations (Tmax) ([4]; fasted subjects)	half-life ([4]; in vivo)	median Tmax ([4]; new formulations containing 40% bicarbonate, co-processed intimately (US 20070218128, Bertelsen)) [min]	median Tmax ([4]; standard tablets (US 20070218128, Bertelsen)) [min]	mean Tmax ([5]; 25 mg film-coated tablets with bicarbonate) [min]	mean Tmax ([5]; 50 mg film-coated tablets with bicarbonate) [min]	mean Tmax ([5]; standard immediate release tablets) [min]
more than 1400 ml	5.6 (≈ 15.1 µM)	10.4 (≈ 28 µM)	CN1C(=C(O)Nc2ccccn2)C(=O)c2sc(Cl)cc2S1(=O)=O (stereo in doubt) [lornoxicam, (3E)-6-chloro-3-[hydroxy(pyridin-2-ylamino)methylene]-2-methyl-2,3-dihydro-4H-thieno[2,3-e][1,2]thiazin-4-one 1,1-dioxide]	less than 1 mg/100 ml	5.5	4.7	1-2	1.8	~0.5	84 to 360	around 2.5 hours	approximately 4 hours	30	150			
			O=C(O)Cc1ccccc1Nc1c(Cl)cccc1Cl [diclofenac]												21.2	29.8	50.8

Source: patent US20130171254A1, “FAST DISSOLVING PHARMACEUTICAL COMPOSITION COMPRISING LORNOXICAM” (ABBOTT HEALTHCARE PRIVATE LIMITED, priority 2009, published 2013)
